# Laboratory results from patent publication US8685933B2, “Casein-derived peptides having anxiolytic activity” (Universite de Lorraine, priority 2006, dated 2014).
# Where no end group is shown, it is not given here.
# How the values were obtained:
# Assay type in all cases: in vivo, rat
# Wistar rats [1] = test: elevated plus maze test; conditions: for number of entries in the open arms, carrier compared with treated animals / percentage of entries into the open arms, carrier compared with treated animals / time spent in the open arms, carrier compared with treated animals: p<0.05
# Excerpt: The elevated plus maze test allows the measurement of the density of exploratory behaviour in a new aversive situation [PELLOW et al., 1985 (17)]. The experiment exploits the conflict in rodents, between the fear of open spaces and the desire of exploring a new environment. The rat, placed at the centre of the device is forced to explore its environment. The open arms form an anxiogenic environment, whereas this is not the case of the closed arms. The number of entries in the whole of the arms, that relating to the open arms, the closed arms, the time spent in the open arms, the entry latency in the first open arm, form parameters which reflect the degree of anxiety of the animal.
# The elevated plus maze built in wood consists of four branches at 90° from each other. The two open branches (45×10 cm) and the two closed branches (45×10 cm; surrounded with wooden plates over a height of 40 cm) are positioned facing each other. The central square measures 10×10 cm. The open branches are illuminated by white light with an intensity of 500 lux. The elevated plus maze is located at 50 cm from the ground.
# The observations take place between 9.0 am and 11.0 am in order to minimize the influence of the circadian rhythm. […] each passage in the elevated plus maze, the animal is placed for 10 min in an open field in order to stimulate its exploratory behavior. It is then placed in the central square of the elevated plus maze and observed for 5 min. The plus maze is washed with 95% (v/v) ethanol between two passages in order to eliminate the odors.
# The animals receive their respective treatment via an intra-peritoneal route, half an hour before passing into the open field.
# Wistar rats [2] = test: light/dark box test; conditions: for time spent in the aversive non-familiar compartment, carrier compared with treated animals: 10 min observation, p<0.05
# Excerpt: The light/dark tests are based on the innate aversion of rodents for intensively illuminated environments and on their spontaneous exploratory behavior in response to slight stress factors such as a new environment and light. The device of the light/dark box allows the study of the exploratory behavior of the rodent towards a non-familiar aversive compartment (intensively illuminated with white light) after habituation in a non-aversive compartment (dark) which then becomes familiar [BOURIN and HASCOËT, 2008 (18)]. Conventional anxiolytics may be detected by using this device.
# The light/dark box measures 65×49×35 cm (h×w×l) and is separated into two identical compartments by a plate perforated with three doors of 8×8 cm. The floor is covered with sawdust. Each rat is placed for 24 h in the rear compartment of the box, the doors for communicating with the front compartment being inaccessible. The rear compartment thus becomes the familiar compartment. The animal is fed and hydrated ad libitum. On the day of the test, the rat after treatment is replaced in the familiar compartment and the doors communicating with the front compartment (non-familiar) are made accessible so that the animal may freely explore the environment. The non-familiar compartment is made aversive by white light illumination with an intensity of 1,500 lux. The animals are observed for 10 min and the time spent in each of the compartments is measured.
# The animals receive their respective treatment via an intra-peritoneal route, half an hour before opening the communication between the familiar compartment and the non-familiar compartment.
# Wistar rats [3] = test: conditioned defensive burial test
# Excerpt: The conditioned defensive burial test was used for measuring the anxiety level in rats. Developed by PINEL and TREIT (16), this test is based on the innate tendency of rodents, placed in a familiar environment of burying any object perceived as being dangerous by projecting on the latter the litter present at ground level. The expression of the burial behavior by the animal is representative of its anxiety level: more it is anxious, more it buries.
# The test takes place in a Plexiglas box (44×28×18 cm), one of the walls of which has an orifice through which an electrode (7×2×0.5 cm) may be inserted. The bottom of the box is covered with a thick layer of sawdust (5 cm). The electrode is connected to a generator delivering a 1 mA intensity current when it is actuated by the experimenter. The whole of the experimentation is carried out in low intensity light.
# The experiment consists of habituation phase of 2 days followed by a test phase. During the habituation phase, the rats are placed 20 min daily in the test box, without the electrode, in order to accustom them to the experimental device. During the test phase, each rat is individually placed in the box which contains the electrode. When the animal touches the electrode in the first time, it receives a single shock. From this instant, its behavior is filmed for 5 min and behavioral variables are quantified.
# The total burial time and the occurrence latency of the burial behavior after the shock are the most significant variables. A certain number of behaviors oriented towards the electrode and correlated with the anxiety level of the rat (approaches, escapes, contacts) are also counted. Finally, indicators of the activity level of the rat such as the number of upright standing postures are reported.
# The animals receive their respective treatments, via an intra-peritoneal route, half an hour before passing into the conditioned defensive burial test.
# [4] = fragment 0.7 mg/kg vs diazepam 1 mg/kg intra-peritoneal
# [5] = fragment 91-97 0.7 mg/kg intra-peritoneal
# [6] = diazepam 1 mg/kg intra-peritoneal
Molecule,"elevated plus maze open-arm parameters, fragment 91-97 compared with diazepam (Wistar rats [1]; [4])","number of entries in the open arms, carrier compared with treated animals (Wistar rats [1]; [5])","percentage of entries into the open arms, carrier compared with treated animals (Wistar rats [1]; [5])","time spent in the open arms, carrier compared with treated animals (Wistar rats [1]; [5])","time spent in the non-familiar compartment, fragment 91-97 compared with diazepam (Wistar rats [2]; [4])","time spent in the aversive non-familiar compartment, carrier compared with treated animals (Wistar rats [2]; [5])",anxiolytic action in conditioned defensive burial (Wistar rats [3]; 0.5 mg/kg intra-peritoneal),"burial duration of an aversive probe after a single 1 mA shock, NaCl 0.9% control compared with treated animals (Wistar rats [3]; 0.5 mg/kg intra-peritoneal, half an hour before test, Mann-Whitney: diazepam p<0.02, fragment 91-97 p<0.04, 5 min observation)","burial duration, fragment 91-97 compared with diazepam (Wistar rats [3]; both 0.5 mg/kg intra-peritoneal)","number of entries in the open arms, carrier compared with treated animals (Wistar rats [1]; [6])","percentage of entries into the open arms, carrier compared with treated animals (Wistar rats [1]; [6])","time spent in the open arms, carrier compared with treated animals (Wistar rats [1]; [6])","time spent in the aversive non-familiar compartment, carrier compared with treated animals (Wistar rats [2]; [6])"
"YLGYLEQ [fragment 91-97 of αs1 casein, Heptapeptide corresponding to the positions 91-97 of αs1 casein]",No significant difference,significantly less,significantly less,significantly less,No significant difference,significantly less,has an anxiolytic action in Wistar rats which acts in the same direction as that of diazepam,significantly larger,No significant difference,,,,
"CN1C(=O)CN=C(c2ccccc2)c2cc(Cl)ccc21 [diazepam, reference compound]",,,,,,,,,,significantly less,significantly less,significantly less,significantly less
